Experimental data from PubChem BioAssay AID2060614 (Molecular Pharmacology Branch, DTP, NCI, 2025).
Several values for one entry are separate records, joined by “and”; a condition that tells them apart may be missing. Identical values can stand only once.

Test system: 598228-144-R-J1-PDC complex spheroids, viability
Experiment: Anticancer human tumor 598228-144-R-J1-PDC patient-derived serous endometrial adenocarcinoma cell line growth inhibition [CLK]
Settings: for viability, T/C: stronger effect = lower value
Description: A high-throughput screen of multi-cell type tumor spheroids was designed to identify active combinations of […] and targeted small molecules. Complex spheroids include a stromal component modeled by human endothelial cells (HUVEC) and fibroblasts modeled by human mesenchymal stem cells (MSCs). The concentration ranges selected for each drug and investigational agent were based upon clinically achievable concentrations if the clinical Cmax of the agent was known.
Compounds. The drugs and investigational agents: cirtuvivint (SM08502; NSC835563), CC-671 (NSC850746), vemurafenib (NSC761431), tapotoclax (NSC804041), sotorasib (NSC818433), adagrasib (NSC831453), MRTX-1133 (NSC836407), BAY2416964 (NSC825713), copanlisib (NSC816437), inavolisib (NSC800729), abemaciclib (NSC768073), osimertinib (NSC779217), entinostat (NSC756642), eltanexor (KPT-8602, NSC794443), venetoclax (NSC766270), ceralasertib (NSC777638), bortezomib (NSC756655), olaparib (NSC753686), talazoparib (NSC767125), alisertib (NSC759677), peposertib (NSC802822), gemcitabine (NSC613327), 5-fluorouracil (NSC19893), SN-38 (NSC673596), oxaliplatin (NSC266046), paclitaxel (NSC125973), and doxorubicin (NSC123127), were obtained from the National Cancer Institute (NCI) Developmental Therapeutics Program Chemical Repository. The FDA-approved anticancer drug set is available from the Developmental Therapeutics Program at https://dtp.cancer.gov/organization/dscb/obtaining/available plates.htm. […] The stock solutions were prepared in dimethyl sulfoxide (DMSO, Sigma-Aldrich, St. Louis, MO, cat. D2650), except for the platinum complexes which were prepared in saline (Quality Biological, Gaithersburg, MD, cat. 114-055-101), at 800-fold the tested concentration and stored at -70 degrees C prior to their use. All drugs and investigational agents were tested over a range starting from a high concentration at or near the clinical Cmax and decreasing in half-log increments. If the clinical Cmax for an agent had not been determined, the highest concentration tested was 10 microM.
Cell Culture. All cells were maintained in an incubator at 37 degrees C and 5% CO2 with 95% humidity. The PDC lines were cultured according to standard operating procedures established by the NCI PDMR. Briefly, all PDCs were thawed and cultured in Matrigel-coated flasks prepared with a working solution of 1X Ham's F-12 nutrient mix, without supplementation (Invitrogen, Waltham, MA, cat. 11765054), 100 U/mL penicillin-streptomycin (Invitrogen, cat. 15140122), and 2.5% Matrigel (Corning Inc., Corning, NY, cat. 354248) for the first three passages. The 947758-054-R-J2-PDC line was cultured in 6B/Colon 1A media, which includes advanced DMEM/F-12 (Thermo Fisher Scientific, cat. 12634028), 10 mM HEPES (Thermo Fisher Scientific, cat. 15630080), 1X GlutaMAX supplement (Thermo Fisher Scientific, cat. 35050061), 0.1 mg/mL primocin (InvivoGen, cat. ant-pm-2), 10% defined fetal bovine serum, heat inactivated (HyClone Laboratories Inc., cat. SH30070.03HI), 1.25 mM N-Acetyl-L-cysteine (Sigma-Aldrich, cat. A9165), 10 mM nicotinamide (Sigma-Aldrich, cat. N0636), 1X B-27 supplement (Thermo Fisher Scientific, cat. 17504044), 1X N-2 supplement (Thermo Fisher Scientific, cat. 17502048), and 10 microM Y-27632 dihydrochloride (Tocris Bioscience, cat. 1254). The 876862-298-R-J1-PDC was cultured in 6E media, which includes all 6B/Colon 1A media components plus 50% L-WRN conditioned media (ATCC, cat. CRL-3276), 50 ng/mL recombinant human EGF recombinant protein (hEGF; Thermo Fisher Scientific, cat. PHG0311), 10 ng/mL recombinant human fibroblast growth factor 10 (hGFG-10; PeproTech, cat. 100-26), 1 ng/mL recombinant human fibroblast growth factor 2 (hFGF-2; PeproTech, cat. 100-18B), and 1 µM prostaglandin E2 (PGE2; Tocris, cat. 2296). The 227483-062-R1-J1-PDC line was cultured in Panc media, containing all 6E components except hFGF-2, with the addition of 500 nM SB-431542 (Selleckchem, cat. S1067) and 10 nM gastrin (Tocris, cat. 3006). […]
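Further: spheroids exposed to compounds for seven days before readout.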
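Wherever viability, T/C is given: 100% = DMSO vehicle control wells.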

SMILES | viability, T/C (compound 0.0316 µM) | viability, T/C (compound 0.1 µM) | viability, T/C (compound 0.316 µM) | viability, T/C (compound 1 µM) | viability, T/C (compound 3.16 µM) | viability, T/C (compound 10 µM) | IC50 (curve of compound) | other results
C#Cc1c(F)ccc2cc(O)cc(-c3ncc4c(N5CC6CCC(C5)N6)nc(OCC56CCCN5CC(F)C6)nc4c3F)c12 (configuration not stated) | 99.8% and 98.6% | 101% and 103% | 108% and 112% | 103% and 100% | 102% and 103% | 97.9% and 102% | > 10000 nM | –
C=C(F)C(=O)N1CCN(c2nc(OCC3CCCN3C)nc3c2CCN(c2cccc4cccc(Cl)c24)C3)CC1CC#N (configuration not stated) | 91% and 112% | 107% and 89.4% | 97.2% and 105% | 109% and 103% | 66.6% and 68.1% | 0.83% and 0.61% | 4230 nM and 4300 nM | –
C=CC(=O)N1CCN(c2nc(=O)n(-c3c(C)ccnc3C(C)C)c3nc(-c4c(O)cccc4F)c(F)cc23)C(C)C1 (configuration not stated) | 95% and 99.2% | 94.5% and 92.9% | 98.5% and 113% | 108% and 115% | 107% and 117% | 98% and 109% | > 10000 nM | –
C=CC(=O)Nc1cc(Nc2nccc(-c3cn(C)c4ccccc34)n2)c(OC)cc1N(C)CCN(C)C | – | – | – | – | – | – | > 300 nM | viability, T/C (compound 0.000949 µM): 106% and 86.2%; viability, T/C (compound 0.003 µM): 95.3% and 97.7%; viability, T/C (compound 0.00949 µM): 108% and 95.7%; viability, T/C (compound 0.03 µM): 93.7% and 93.5%; viability, T/C (compound 0.0949 µM): 99.3% and 92.6%; viability, T/C (compound 0.3 µM): 92.1% and 94.7%
CC(=O)O[C@H]1C(=O)[C@@]2(C)[C@H]([C@H](OC(=O)c3ccccc3)[C@]3(O)C[C@H](OC(=O)[C@H](O)[C@@H](NC(=O)c4ccccc4)c4ccccc4)C(C)=C1C3(C)C)[C@]1(OC(C)=O)CO[C@@H]1C[C@@H]2O | 35.4% and 37% | 33.6% and 37% | 31% and 30.4% | 25.1% and 34.2% | 32.1% and 36.1% | 32.5% and 47.5% | < 31.6 nM | –
CC(C)CC(NC(=O)C(Cc1ccccc1)NC(=O)c1cnccn1)B(O)O (configuration not stated) | – | – | – | – | – | – | 3.7 nM and 4.15 nM | viability, T/C (compound 0.000949 µM): 96.3% and 107%; viability, T/C (compound 0.003 µM): 60.7% and 68.6%; viability, T/C (compound 0.00949 µM): 1.72% and 2.43%; viability, T/C (compound 0.03 µM): 2.65% and 0.78%; viability, T/C (compound 0.0949 µM): 0.47% and 0.54%; viability, T/C (compound 0.3 µM): 1.72% and 0.37%
CC(CO)NC(=O)c1cc(-c2ccc(Cl)cc2)nn(-c2cnn(C)c2)c1=O (configuration not stated) | 92.9% and 110% | 89.4% and 109% | 98.2% and 116% | 98.4% and 106% | 76.6% and 111% | 89.9% and 73.9% | > 10000 nM | –
CC(Nc1ccc2c(c1)OCCn1cc(N3C(=O)OCC3C(F)F)nc1-2)C(N)=O (configuration not stated) | 82.3% and 77.2% | 67.8% and 63.2% | 48% and 46.3% | 46.3% and 36.9% | 33.6% and 29.7% | 28.9% and 24% | 418 nM and 264 nM | –
CC1(C)CCC(CN2CCN(c3ccc(C(=O)NS(=O)(=O)c4ccc(NCC5CCOCC5)c([N+](=O)[O-])c4)c(Oc4cnc5[nH]ccc5c4)c3)CC2)=C(c2ccc(Cl)cc2)C1 | 107% and 88.7% | 89.8% and 91.9% | 89.7% and 89.9% | 104% and 105% | 101% and 94.9% | 32.4% and 26.7% | 7360 nM and 6720 nM | –
CC1COCCN1c1cc(C2(S(C)(=N)=O)CC2)nc(-c2ccnc3[nH]ccc23)n1 (configuration not stated) | 96.7% and 86.2% | 110% and 86.8% | 98.8% and 87.7% | 72.7% and 79% | 58.1% and 61.5% | 34.3% and 34.9% | 4040 nM and 5180 nM | –
CCCS(=O)(=O)Nc1ccc(F)c(C(=O)c2c[nH]c3ncc(-c4ccc(Cl)cc4)cc23)c1F | 95.3% and 98.7% | 119% and 92.2% | 92.5% and 90.5% | 106% and 90.1% | 89.6% and 81.8% | 55.9% and 44.1% | > 10000 nM and 8390 nM | –
CCN1CCN(Cc2ccc(Nc3ncc(F)c(-c4cc(F)c5nc(C)n(C(C)C)c5c4)n3)nc2)CC1 | 92.4% and 109% | 99.5% and 96.7% | 103% and 93.4% | 92.4% and 82.3% | – | – | > 1000 nM | viability, T/C (compound 0.00316 µM): 99.8% and 91.7%; viability, T/C (compound 0.01 µM): 94.1% and 88%
CCc1c2c(nc3ccc(O)cc13)-c1cc3c(c(=O)n1C2)COC(=O)[C@]3(O)CC | 45% and 44.2% | 29% and 22.6% | 16.5% and 15.5% | 4.57% and 6.27% | – | – | 20.8 nM and 12.6 nM | viability, T/C (compound 0.00316 µM): 54.7% and 48.2%; viability, T/C (compound 0.01 µM): 61.4% and 56.1%
CNC(=O)c1ccc(Nc2nc(OC3CCCC3)c3c(-c4ccc5nc(C)oc5c4)c[nH]c3n2)c(OC)c1 | 89.3% [middle of 4 runs] | – | – | 101% [middle of 12 runs] | 94.7% [middle of 12 runs] | 101% [middle of 12 runs] | – | IC50 (compound alone, run of 09/19/2023): > 10000 nM
COC1C=CCC(C)C(C)S(=O)(=O)NC(=O)c2ccc3c(c2)N(CC2CCC21)CC1(CCCc2cc(Cl)ccc21)CO3 (configuration not stated) | 106% and 108% | 80.2% and 85.4% | 61% and 66.5% | 55.6% and 58.4% | 56.3% and 56.4% | 34.4% and 20.1% | 1870 nM and 1810 nM | –
COc1c(OCCCN2CCOCC2)ccc2c3n(c(=NC(=O)c4cnc(N)nc4)nc12)CCN3 | 52.9% and 45.3% | 34.8% and 27.9% | 19.3% and 14.2% | 8.63% and 7.29% | – | – | 34.6 nM and 17.5 nM | viability, T/C (compound 0.00316 µM): 80.5% and 77.9%; viability, T/C (compound 0.01 µM): 65.1% and 53.3%
Cn1ncnc1[C@H]1c2n[nH]c(=O)c3cc(F)cc(c23)N[C@@H]1c1ccc(F)cc1 | 95.8% and 103% | 76.3% and 84.7% | – | – | – | – | > 100 nM | viability, T/C (compound 0.000316 µM): 111% and 95.5%; viability, T/C (compound 0.001 µM): 103% and 114%; viability, T/C (compound 0.00316 µM): 81.5% and 109%; viability, T/C (compound 0.01 µM): 83.8% and 101%
NC(=O)C(=Cn1cnc(-c2cc(C(F)(F)F)cc(C(F)(F)F)c2)n1)c1cncnc1 | – | – | – | – | – | – | 114 nM and 232 nM | viability, T/C (compound 0.00949 µM): 89% and 103%; viability, T/C (compound 0.03 µM): 80.9% and 101%; viability, T/C (compound 0.0949 µM): 52.1% and 86.2%; viability, T/C (compound 0.3 µM): 32% and 38.9%; viability, T/C (compound 0.949 µM): 15% and 30.6%; viability, T/C (compound 3 µM): 18.1% and 21.5%
Nc1ccccc1NC(=O)c1ccc(CNC(=O)OCc2cccnc2)cc1 | 104% and 85.5% | 94.5% and 92.8% | 78.2% and 73.5% | 35.4% and 61.1% | 20% and 20.5% | 3.38% and 10.9% | 713 nM and 1280 nM | –
Nc1ccn(C2OC(CO)C(O)C2(F)F)c(=O)n1 (configuration not stated) | 32.7% and 37.1% | 24.5% and 31.8% | 20.6% and 26.5% | 24.4% and 28% | 21.4% and 36.8% | 22% and 27.7% | < 31.6 nM | –
O=C(c1cc(Cc2n[nH]c(=O)c3ccccc23)ccc1F)N1CCN(C(=O)C2CC2)CC1 | 93.1% and 97.7% | 87.5% and 104% | 95.4% and 94.2% | 94.4% and 105% | 97.5% and 103% | 88% and 87.2% | > 10000 nM | –
O=c1[nH]cc(F)c(=O)[nH]1 | 106% and 89.1% | 94.6% and 96.1% | 101% and 88.6% | 97.6% and 99.6% | 99.3% and 88.9% | 74.2% and 77.3% | > 10000 nM | –
